Data on 1 molecule can be found in patent publication US20240043860A1, “NOVEL HYDROXYPHENYLPYRUVATE DIOXYGENASE POLYPEPTIDES AND METHODS OF USE THEREOF” (Syngenta Crop Protection AG, priority 2020, published 2024).

Assay [1] deals with HPPD variant AVESA V201 (SEQ ID NO: 8). It counts as biochemical, Avena sativa. The note with it: SEQ ID NO: 8 compared to control SEQ ID NO: 122. Here is the method:
25 ul of the overnight cultures were inoculated into fresh 96-deepwell block containing 1 ml Formedium Autoinduction Media (AIM). The AIM cultures were grown for 3h at 37° C. (900rpm) and then transferred to 20° C. overnight (900rpm) to allow protein expression. The overnight cultures were centrifuged and 500 ul of Cellytic B (Sigma Aldrich) was added to resuspend the cell pellets. The coupled HGO assay (Siehl et al, 2014) is used to generate IC50 values for the HPPD variants of interest.
(§1) E. coli BL21 (DE3) cells were transformed with a pET24a vector containing a C-terminally his-tagged Arabidopsis HGO gene, grown and induced overnight as described for the HPPD variants above. The cell pellet was resuspended in phosphate buffered saline at pH 7.4 containing 10% Glycerol, 1mm Tris[2-carboxyethyl] phosphine-HCl (TCEP) plus 30 mM Imidazole and lysed using lysozyme/benzonase. The extract was clarified by low speed centrifugation and purified in the same buffer down a 1 ml His Gravitrap column. The bound HGO was eluted in 0.25M imidazole and the fractions pooled and beaded into liquid nitrogen. All procedures apart from the centrifugation and beading steps were carried out under a nitrogen atmosphere.
(§2) The coupled HGO assay is carried out by adding 10 ul of HPPD extract to a 96-well plate and then adding 40 ul of reaction buffer (50 mM Bis Tris Propane, pH7.0, 25 mM sodium-L-ascorbate, 400μM mercaptoethanol, 50 μM Fe(II)SO4). The plates are left to incubate for 5 minutes on ice. […] 200 ul of HPP/HGO (197 μM hydroxyphenylpyruvic acid, 16 μl/ml Homogentisic Acid Oxidase in reaction buffer as described above) buffer is then added to the well and the reaction is regularly monitored (e.g. every 30 seconds-5 minutes) for absorbance at 330 nm for a given time period (e.g., for between 15-60 minutes). The data can then be used to calculate the IC50 value for each HPPD variant of interest.

Assay [2] relates to HPPD variant ALOME V209 (SEQ ID NO: 19). Briefly: coupled HGO assay. In kind it is biochemical, Alopecurus myosuroides. Here is the method:
(§3) DNA sequences (SEQ ID NOs: 65-118, 128, 130, 131, and 133), synthesized for expression in E. coli, by GeneWiz (USA) to encode HPPD variants (SEQ ID NOs: 5-58, 122, 124, 125 and 127) derived from either Avena sativa (SEQ ID NOs: 122, 124), Alopecurus myosuroides (SEQ ID NO: 126) or Apera spica-venti (SEQ ID NOs: 123, 125) were transformed into E coli BL21 (DE3) (New England Biolabs) and grown in 0.5 ml Terrific broth +50 ug/ml Kanamycin media in a 96-deepwell block overnight (37° C., 900rpm). 25 ul of the overnight cultures were inoculated into fresh 96-deepwell block containing 1 ml Formedium Autoinduction Media (AIM). The AIM cultures were grown for 3h at 37° C. (900rpm) and then transferred to 20° C. overnight (900rpm) to allow protein expression. The overnight cultures were centrifuged and 500 ul of Cellytic B (Sigma Aldrich) was added to resuspend the cell pellets. The coupled HGO assay (Siehl et al, 2014) is used to generate IC50 values for the HPPD variants of interest.
as §1, §2

Assay [3] concerns HPPD variant ALOME V200 (SEQ ID NO: 7). Briefly: coupled HGO assay. In kind it is biochemical, Alopecurus myosuroides. Here is the method:
as §3, §1, §2

Broadly, the IC50 is the concentration that gives 50% inhibition. For the molecule `Cn1nnnc1NC(=O)c1ccc(C(F)(F)F)nc1-n1cncn1` [Herbicide D, N-(1-methyltetrazol-5-yl)-2-(1,2,4-triazol-1-yl)-6-(trifluoromethyl)pyridine-3-carboxamide], the “increase of the IC50 value” in assay [1] is given as around 80 fold. Moreover, the values for the IC50 in assay [2] and in assay [3] were 96.9 µM and 77.8 µM, respectively.
